Entries after “also recorded” stand apart in the source; their conditions may differ.
What was measured:
3T3 F442A = experiment: Determination of the glycero-3-phosphate dehydrogenase (G3PDH) activity in treated fibroblast (preadipocyte) cultures; format: cell-based, murine; conditions: for Rate of conversion of NADH: 3T3 F442A cultures treated at 5 μg/ml on D+5, D+7, D+9, G3PDH assayed on D+12, mean of three experiments; for Activity A1 (stimulation of G3PDH activity versus control cultures): 3T3 F442A cultures, calculated from Vp and Vt
From the text: The cells used are 3T3 F442A, which constitute a line of murine preadipocytes selected for their ability to convert to adipocytes if the culture conditions allow, in accordance with the method of Green, H. & Kehinde, C., Cell 1 (1974) 113.
The aim was to measure the expression of two differentiation markers, namely glycero-3-phosphate dehydrogenase (G3PDH) on the one hand and cyclic AMP (cAMP) on the other.
It is pointed out here that the enzyme G3PDH allows the formation, in the fibroblast, of glycerol 3-phosphate, a molecule which is subsequently involved in the synthesis of the intracellular lipids (triglycerides). Thus an increase in the activity of the G3PDH is directly linked to an increase in this synthesis.
The fibroblasts are inoculated at the bottom of Petri dishes of diameter 35 mm in Dulbecco's Modified Eagle's Medium (DMEM), in the presence of 5% of calf serum (CS) and 5% of fetal calf serum (FCS). Each experiment is performed in triplicate.
During the treatment phase, the medium consists of DMEM+10% of fetal calf serum.
The product or extract according to the invention is dissolved in ethanol and used on the cultures at a final concentration of 5 μg/ml.
On day D+5: treatment with resin of Commiphora mukul (extract G), FIIB1 or IIa or IIb at 5 μg/ml in DMEM, 10% FCS
On days D+7 and D+9: treatment identical to that performed on D+5
On day D+12: grinding of the cells for assay of G3PDH.
The cellular monolayer is recovered by scraping and vigorously homogenized in TRIS-HCl buffer (25 mM, pH 7.4), 1 mM EDTA, at 4° C. The G3PDH activity is determined on the supernatant of the ground cellular material immediately after centrifugation.
It is possible to calculate an absorption difference (ΔAbs)/min, which corresponds to the initial rate of the enzymatic reaction.
The results are expressed in terms of specific activity, i.e. in nmol of NADH converted/min/mg of cellular proteins (the total cellular protein content is evaluated by the method of BCA—PIERCE: protein assay reagent).
The activity Al of the products according to the invention on stimulation of the activity of this enzyme is calculated according to the following formula: [formula]
Vp is the mean value, over the three experiments, of the rate of conversion of NADH, expressed in nmol/min/mg of cellular proteins, in the cultures treated with the products according to the invention,
Vt is the mean value of this rate in the control cultures.

fibroblasts in culture = experiment: Lipogenic activity of the fractions on fibroblasts in culture; format: cell-based; conditions: result in words
Protocol: In a first step, the extract G is subjected to a series of fractionations by high performance liquid chromatography. Each fraction is tested for its lipogenic activity on fibroblasts in culture using the method explained below. These different fractionations ultimately yield an active fraction, FIIB, whose characteristic peaks are identified on the chromatogram.

Row | Structure (SMILES) | Rate of conversion of NADH (3T3 F442A) | Activity A1 (stimulation of G3PDH activity versus control cultures) (3T3 F442A; 5 μg/ml) [%] | Increase of the activity of the enzyme G3PDH compared with control cultures (3T3 F442A; fibroblast cultures, 5 μg/ml) [fold] | Lipogenic activity (fibroblasts in culture)
1 | C/C(=C\CC/C(C)=C/CC[C@@H]1[C@@]2(C)CCC(=O)C(C)(C)[C@@H]2CC[C@@]1(C)O)CC/C=C(\C)C(=O)O [IIb, (5R,10S,8R,9R)-8-hydroxy-3-oxopolypoda-13E,17E,21 E-trien-30-oic acid] | 352 ± 62 nmol/min/mg of proteins | 610 | 7 | give the best results; also recorded: substantially equivalent
2 | C/C(=C\CC/C(C)=C/CC/C(C)=C/CC[C@@H]1[C@@]2(C)CCC(=O)C(C)(C)[C@@H]2CC[C@@]1(C)O)CO [IIa, (5R, 10S,8R,9R)-3-oxopolypoda-13E,17E,21E-triene-8,30-diol] | 222 ± 88 nmol/min/mg of proteins | 348 | – | give the best results; also recorded: substantially equivalent

Source: patent US6630177B1, “Products extracted from a plant of the genus Commiphora, particularly the Commiphora mukul plant, extracts containing same and applications thereof, for example in cosmetics” (Parfums Christian Dior, priority 1995, dated 2003)
